Assay results taken from patent publication US10653715B2, “Methods and compositions for extending lifespan” (priority 2016, dated 2020).
Several values for one entry are separate records, joined by “and”; a condition that tells them apart may be missing. Equal entries are not always repeated.

Test system: B6C3F1/J mice
Assay: Large-scale lifespan screen of compounds in long-lived B6C3F1 hybrid mice
Type: in vivo, mouse
Settings: for extension of maximal lifespan: maximal lifespan = average lifespan of the 20% longest-lived mice; for extension of mean lifespan: 15 per compound, dosed from 5 months of age throughout lifespan, relative to untreated controls
Source text: The majority of compounds included drugs currently used in medicine and drug-like molecules, with wide range of targets that span the entire pharmacological space.
The compounds were clustered into 62 drug classes based on their mechanism of action or cellular target. Screening a wide range of known compounds could potentially resolve two challenges. First, to analyze how distinct drug classes with common mechanisms of action affect aging in mammals. Second, to determine with no bias or predispositions which of the current pharmacological drugs can extend lifespan.
In this study, the inventors used a strain of long-lived B6C3F1 hybrid mice (C57BL/6J♀×C3H/HeJ♂) with well-characterized aging dynamics (Lipman 1999, Turturro, 1999). […] Each treatment group included 15 female mice per compound, while 335 females were used as controls. Three additional control groups included 60 female mice on dietary restriction (60% ad libitum), 60 female mice on a purified diet, and 60 male mice as gender control. Each compound treatment and diet intervention were administered to mice starting at 5 months of age, and continued throughout their lifespan. The primary endpoint was mouse mortality, from which we calculated mean lifespan, maximal lifespan, and the onset of morbidity for each experimental group. To calculate the statistical significance, the mean lifespan, maximal lifespan, and the onset of morbidity for each individual compound and drug class were compared to the lifespan distribution of untreated mice. […]

[1] = B6C3F1/J mice, compared to the lifespan distribution of untreated mice
[2] = female B6C3F1/J mice, dosed from 5 months of age, relative to controls

Compound | effect on mean and/or maximal lifespan (in words) [1] | effect on mean and/or maximal lifespan (in words) (mouse, in vivo) | extension of mean lifespan (female B6C3F1/J mice) | further results
C[C@]12CC[C@@H]3c4ccc(O)cc4CC[C@H]3[C@@H]1CC[C@@H]2O [17β-estradiol] | significantly shortened |  |  | reduction of mean lifespan [2]: 21%
CCOC(=O)C(C)(C)Oc1ccc(Cl)cc1 [Clofibrate] |  |  |  | extension of maximal lifespan [2]: 20.9%; extension of maximal lifespan (female B6C3F1/J mice, dosed from 5 months of age, relative to controls, listed as clofibrate): 21%
CC(=O)[O-].CC(=O)[O-].[Mg+2] [Magnesium Acetate] |  | significantly extended |  | 
Inulin | significantly extended |  | 16% | extension of maximal lifespan [2]: 18%
O=C(O)CN(CCN(CC(=O)O)CC(=O)O)CCN(CC(=O)O)CC(=O)O [Pentetic acid, diethylene triamene pentaacetic acid] | significantly extended |  | 16.1% | extension of mean lifespan (female B6C3F1/J mice, listed as pentetic acid): 16%
[Mg+2].[OH-].[OH-] [Magnesium Hydroxide] |  | significantly extended |  | 
[Cl-].[Cl-].[Mg+2] [Magnesium Chloride] |  | significantly extended |  | 
C[C@@H]1O[C@@H](O[C@@H]2C=C3CC[C@@H]4[C@H](CC[C@]5(C)[C@@H](c6ccc(=O)oc6)CC[C@]45O)[C@@]3(C)CC2)[C@H](O)[C@H](O)[C@H]1O [Proscillaridin A] | significantly extended |  | 16% and 16.4% | extension of onset of morbidity [2]: 40% and 39.9%
